Like-named read-outs stand apart in the source and are kept apart here.
What was measured:
S. aureus FDA-209-p = assay: Antimicrobial activity test: MIC by the agar plate dilution method, S. aureus FDA-209-p; format: cell-based, Staphylococcus aureus; conditions: inoculum 1×10^6 cells/ml
Protocol: (§1) In order to investigate the in vitro activity of the under-mentioned compounds against various bacteria, the minimal inhibitory concentration (MIC) values were determined by the agar plate dilution method [see Chemotherapy, 22, 1126-1128 (1974)].
(§2) Each test inoculum was adjusted to 1×10^6 cells/ml (O.D., 600 mμ: 0.07-0.16).

P. mirabilis 1287 = assay: Antimicrobial activity test: MIC by the agar plate dilution method, P. mirabilis 1287; format: cell-based; conditions: P. mirabilis 1287; inoculum 1×10^6 cells/ml
Protocol: as §1, §2

P. aeruginosa NCTC-10490 = assay: Antimicrobial activity test: MIC by the agar plate dilution method, P. aeruginosa NCTC-10490; format: cell-based; conditions: inoculum 1×10^6 cells/ml
Protocol: as §1, §2

S. marcescens IFO-12648 = assay: Antimicrobial activity test: MIC by the agar plate dilution method, S. marcescens IFO-12648; format: cell-based
Protocol: as §1, §2

M. morganii ATCC-25830 = assay: Antimicrobial activity test: MIC by the agar plate dilution method, M. morganii ATCC-25830; format: cell-based; conditions: inoculum 1×10^6 cells/ml
Protocol: as §1, §2

K. pneumoniae NCTC-9632 = assay: Antimicrobial activity test: MIC by the agar plate dilution method, K. pneumoniae NCTC-9632; format: cell-based; conditions: inoculum 1×10^6 cells/ml
Protocol: as §1, §2

E. coli NIHJ = assay: Antimicrobial activity test: MIC by the agar plate dilution method, E. coli NIHJ; format: cell-based; conditions: inoculum 1×10^6 cells/ml
Protocol: as §1, §2

E. coli No. 29 = assay: Antimicrobial activity test: MIC by the agar plate dilution method, E. coli No. 29; format: cell-based
Protocol: as §1, §2

[1] = S. marcescens IFO-12648, inoculum 1×10^6 cells/ml
[2] = E. coli No. 29, inoculum 1×10^6 cells/ml

| Substance | MIC (S. aureus FDA-209-p) [µg/mL] | MIC (P. mirabilis 1287) [µg/mL] | MIC (P. aeruginosa NCTC-10490) [µg/mL] | MIC (S. marcescens IFO-12648; [1]) [µg/mL] | MIC (M. morganii ATCC-25830) [µg/mL] | MIC (K. pneumoniae NCTC-9632) [µg/mL] | MIC (E. coli NIHJ) [µg/mL] | MIC (E. coli No. 29; [2]) [µg/mL] | MIC (S. marcescens IFO-12648) [µg/mL] | MIC (E. coli No. 29) [µg/mL] |
| --- | --- | --- | --- | --- | --- | --- | --- | --- | --- | --- |
| 7-[2-(2-Aminothiazol-4-yl)-2-allyloxyiminoacetamido]-3-[(1,3,4-thiadiazol- 2-yl)thiomethyl]- Δ^3 -O-2-isocephem-4-carboxylic acid (syn-isomer) [No. 3] | 0.78 | ≤ 0.025 | 12.5 | 0.2 | ≤ 0.025 | 0.1 | ≤ 0.025 | ≤ 0.025 | – | – |
| 7-[2-(2-Aminothiazol-4-yl)-2-benzyloxyiminoacetamido]-3-[(1,3,4-thiadiazol-2-yl)thiomethyl]-Δ^3 -O-2-isocephem-4-carboxylic acid trifluoroacetate (syn-isomer) [No. 13] | 0.1 | ≤ 0.025 | 1.56 | 0.1 | ≤ 0.025 | ≤ 0.025 | ≤ 0.025 | ≤ 0.025 | – | – |
| 7-[2-(2-Aminothiazol-4-yl)-2-cyanomethyloxyiminoacetamido]-3-[(1,2,3-thiadiazol-5-yl)thiomethyl]-Δ^3 -O-2-isocephem-4-carboxylic acid trifluoroacetate (syn-isomer) [Example 55] | 0.2 | ≤ 0.025 | 1.56 | 0.1 | ≤ 0.025 | ≤ 0.025 | ≤ 0.025 | ≤ 0.025 | – | – |
| 7-[2-(2-Aminothiazol-4-yl)-2-cyanomethyloxyiminoacetamido]-3-[(1,3,4-thiadiazol-2-yl)thiomethyl]-Δ^3 -O-2-isocephem-4-carboxylic acid trifluoroacetate (syn-isomer) [No. 11] | 0.78 | 0.05 | 1.56 | 1.56 | 0.1 | 0.39 | 0.39 | 0.2 | – | – |
| 7-[2-(2-Aminothiazol-4-yl)-2-cyclopropvlmethyloxyiminoacetamido]-3-[(1,2,3- thiadiazol-5-yl)thiomethyl]-Δ^3 -O-2-isocephem-4-carboxylic acid (syn-isomer) [Example 57] | 0.1 | 0.1 | 0.78 | – | 0.05 | 0.39 | 0.2 | 0.1 | 0.78 | – |
| 7-[2-(2-Aminothiazol-4-yl)-2-cyclopropylmethyloxyiminoacetamido]-3-[(1,3,4-thiadiazol-2-yl)thiomethyl]-Δ^3 -O-2-isocephem-4-carboxylic acid trifluoroacetate (syn-isomer) [No. 10] | 0.05 | ≤ 0.025 | 3.13 | 0.05 | ≤ 0.025 | 0.05 | ≤ 0.025 | 0.05 | – | – |
| 7-[2-(2-Aminothiazol-4-yl)-2-ethoxyiminoacetamido]-3-[(1,3,4-thiadiazol-2-yl)thiomethyl]-Δ^3 -O-2-isocephem-4-carboxylic acid (syn-isomer) [Example 29] | 0.05 | ≤ 0.025 | 6.25 | 0.2 | ≤ 0.025 | 0.05 | ≤ 0.025 | ≤ 0.025 | – | – |
| 7-[2-(2-Aminothiazol-4-yl)-2-methoxyiminoacetamido]-3-[(1,2,3-thiadiazol-5-yl)thiomethyl]-Δ^3 -O-2-isocephem-4-carboxylic acid trifluoroacetate (syn-isomer) [No. 14] | 0.1 | ≤ 0.025 | 1.56 | 0.1 | ≤ 0.025 | ≤ 0.025 | ≤ 0.025 | ≤ 0.025 | – | – |
| 7-[2-(2-Aminothiazol-4-yl)-2-methoxyiminoacetamido]-3-[(1,3,4-thiadiazol-2-yl)thiomethyl]- Δ^33 -O-2-isocephem-4-carboxylic acid (syn-isomer) [No. 2] | 1.56 | 0.1 | 3.13 | – | 0.2 | 0.78 | 0.39 | – | 0.78 | 0.78 |
| 7-[2-(2-Aminothiazol-4-yl)-2-propargyloxyiminoacetamido]3-[(1,3,4-thiadiazol-2-yl)thiomethyl-66^3 -O-b 2-isocephem-4-carboxylic acid trifluoroacetate (syn-isomer) [No. 7] | – | ≤ 0.025 | 0.78 | 0.2 | 0.05 | 0.1 | ≤ 0.025 | 0.1 | – | – |
| 7-[2-(2-Formamidothiazol-4-yl)-2-(2-chloroethoxy)iminoacetamido]-3-[(1,3,4- thiadiazol-2-yl)thiomethyl-]-Δ^3 -O-2-isocephem-4-carboxylic acid (syn-isomer) [Example 33] | – | 0.05 | 1.56 | – | 0.2 | 0.1 | 0.1 | 0.2 | 0.78 | – |
| (6S,7S)-7-[2-(2-Aminothiazol-4-yl}-2methoxyiminoacetamido]-3-[(1,3,4-thiadiazol-2-yl)thiomethyl]-Δ^3 -O-2-isocephem-4-carboxylic acid trifluoroacetate (syn-isomer) [No. 15] | – | ≤ 0.025 | 1.56 | 0.2 | ≤ 0.025 | ≤ 0.025 | ≤ 0.025 | ≤ 0.025 | – | – |
| Benzhydryl 7-[2-(2-tritylaminothiazol-4-yl)-2cyanomethyloxyiminoacetamido-]-3-[(1,3,4-thiadiazol-2-yl)thiomethyl]-Δ^3 -O-2-isocephem-4-carboxylate (syn-isomer) [Example 41] | 0.39 | 0.2 | 0.78 | 1.56 | 0.78 | 0.39 | – | 0.2 | – | – |
| Benzhydryl (6S,7S)-7-[2-(2-aminothiazol-4-yl)-2-methoxyiminoacetamido]-3-[(1,3,4-thiadiazol-2-yl)thiomethyl]-Δ^3 -O-2-isocephem-4-carboxylate (syn-isomer) [Example 59] | 0.39 | ≤ 0.025 | 25 | – | ≤ 0.025 | ≤ 0.025 | – | ≤ 0.025 | 0.39 | – |
| Benzyl7-[2-(2-aminothiazol-4-yl)-2-methoxyiminoacetamido]-3-[(carbamoyloxy)methyl]-Δ^3 -O-2-isocephem-4-carboxylate (syn-isomer) [Example 3] | 0.39 | ≤ 0.025 | 1.56 | – | ≤ 0.025 | 0.39 | – | 0.2 | 0.39 | – |
| Benzyl 7-[2-(2-chloroacetamidothiazol-4-yl)-2-(tert-butoxycarbonylmethoxyimino)acetamido]-3-[(1,3,4-thiadiazol-2-yl)thiomethyl]-Δ^3 -O-2-isocephem-4carboxylate (syn-isomer) [Example 2] | 0.78 | ≤ 0.025 | 3.13 | 0.2 | ≤ 0.025 | 0.2 | – | 0.05 | – | – |
| Benzyl 7-[2-(2-chloroacetamidothiazol-4-yl)-2-cyclopentyloxyiminoacetamido]-3-[(1,3,4-thiadiazol-2- yl)thiomethyl]-Δ^3 -O-2-isocephem-4-carboxylate (syn-isomer) [Example 25] | 1.56 | ≤ 0.025 | 0.78 | 0.2 | ≤ 0.025 | 0.05 | – | ≤ 0.025 | – | – |
| Benzyl 7-[2-(2-trichloroacetamidothiazol-4-yl)-2-methoxyiminoacetamido]-3-[(carbamoyloxy)methyl]-Δ^3 -O-2-isocephem-4-carboxylate (syn-isomer) [Example 5] | 3.13 | ≤ 0.025 | 25 | 0.2 | 0.05 | 0.1 | – | 0.1 | – | – |
| Benzyl 7-[2-(2-trifluoroacetamidothiazol-4-yl)-2-methoxyiminoacetamido]-3-[(carbamoyloxy)methyl]-Δ^3 -O-2-isocephem-4-carboxylate (syn-isomer) [Example 4] | 0.78 | ≤ 0.025 | 6.25 | 0.2 | ≤ 0.025 | 0.1 | – | 0.05 | – | – |

From US4831026A, “2-oxa-isocephem compounds, compositions containing same and processes of using” (Otsuka Pharmaceutical Co., Ltd., priority 1985, dated 1989)
